Reference: ChEMBL document CHEMBL5029199, “Increased Molecular Flexibility Widens the Gap between K i and K d values in Screening for Retinoid X Receptor Modulators” (ACS Med Chem Lett, 2022)
Active and inactive are the calls of the source. The calls are words filed in the database; no cut-off is given here.

How the values were obtained:
[1] = Drug uptake in African green monkey COS-1 cells at 10 uM measured after 24 hrs by trypan blue staining based LC-MS/MS analysis; format: ADME, cell-based; conditions: chlorocebus aethiops, cos-1, 24 h
[2] = molecular target: T1, Retinoic acid receptor RXR-alpha (Homo sapiens, UniProt P19793); assay: Antagonist activity at human RXR-alpha expressed in African green monkey COS-1 cells assessed as reduction in NEt-TMN-induced receptor transactivation at 1 uM by luciferase reporter gene assay; format: cell-based; conditions: read-out: pA2 (converted)
T1 sequence (P19793 whole entry): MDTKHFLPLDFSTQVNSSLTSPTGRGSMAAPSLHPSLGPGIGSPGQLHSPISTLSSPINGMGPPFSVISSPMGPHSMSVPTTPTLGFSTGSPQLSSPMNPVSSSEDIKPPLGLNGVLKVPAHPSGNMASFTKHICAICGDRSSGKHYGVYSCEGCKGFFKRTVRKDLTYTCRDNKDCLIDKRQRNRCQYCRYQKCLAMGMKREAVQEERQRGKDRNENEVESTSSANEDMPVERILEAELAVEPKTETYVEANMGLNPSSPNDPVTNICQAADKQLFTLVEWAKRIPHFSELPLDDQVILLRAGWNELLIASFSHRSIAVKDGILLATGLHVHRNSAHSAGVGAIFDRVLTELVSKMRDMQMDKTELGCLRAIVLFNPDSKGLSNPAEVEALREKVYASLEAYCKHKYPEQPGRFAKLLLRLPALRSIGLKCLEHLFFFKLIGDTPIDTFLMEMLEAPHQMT

[3] = molecular target: T1, Retinoic acid receptor RXR-alpha; assay: Antagonist activity at human RXR-alpha expressed in African green monkey COS-1 cells assessed as reduction in bexarotene-induced receptor transactivation at 1 uM by luciferase reporter gene assay; format: cell-based; conditions: read-out: pA2 (converted)
[4] = molecular target: T1, Retinoic acid receptor RXR-alpha; assay: Binding affinity to human RXRalpha-LBD expressed in African green monkey COS-1 cells assessed as dissociated constant incubated for 2 hrs by tryptophan fluorescence quenching assay; format: cell-based
[5] = molecular target: T1, Retinoic acid receptor RXR-alpha; assay: Displacement of NEt-C343 from human RXRalpha-LBD expressed in African green monkey COS-1 cells assessed as inhibition constant incubated for 2 hrs by competitive binding assay; format: cell-based
Homo sapiens = species on record: Homo sapiens; assay: Ratio of Ki for displacement of NEt-C343 from human RXRalpha-LBD expressed in African green monkey COS-1 cells to Kd for binding affinity to human RXRalpha-LBD expressed in African green monkey COS-1 cells; format: cell-based
[6] = molecular target: T2, Retinoic acid receptor RXR-alpha (Homo sapiens) (UniProt P19793); assay: Antagonist activity at human RXR-alpha expressed in African green monkey COS-1 cells assessed as reduction in NEt-TMN-induced receptor transactivation by measuring shift in concentration-response curve at 1 uM by luciferase reporter gene assay
T2 sequence (whole entry): T1 sequence (P19793 whole entry)

Drug uptake [1] [pg/10^4 cells]	Kb [2] [nM]	Kb [3] [nM]	Kd [4] [nM]	Ki [5] [nM]	Activity [6]	Compound	Ratio (Homo sapiens)
55.1						CCCCCCOc1cc2c(cc1-n1c(C(F)(F)F)nc3cc(C(=O)O)ccc31)C(C)(C)CCC2(C)C	
14.8	26.3	8.71	277	384		CCCCCOc1cc2c(cc1-n1c(C(F)(F)F)nc3cc(C(=O)O)ccc31)C(C)(C)CCC2(C)C	1.39
81.6			705	3160	inactive	CCCCCCOc1cc2c(cc1-n1nnc3cc(C(=O)O)ccc31)C(C)(C)CCC2(C)C	4.48
10.2			764	3540	inactive	CCCCCOc1cc2c(cc1-n1nnc3cc(C(=O)O)ccc31)C(C)(C)CCC2(C)C	4.63
